Data reported in patent US6951871B2, “Indole derivatives useful as histamine H3 antagonists” (Schering Corporation, priority 2002, dated 2005).

Molecular target: T1, H3 receptors (Cavia porcellus, UniProt Q9JI35)
T1 construct: The source of the H3 receptors in this experiment was guinea pig brain; from tissue; host or cells: guinea pig brain membranes
Assay: H3-Receptor Binding Assay
Settings: guinea pig brain membranes; 3 nM [3H]R-α-methyl histamine or 3 nM [3H]Nα-methyl histamine; 30° C., 30 min
Protocol: Using the appropriate indolene starting materials in a similar procedure, the following compounds were prepared: [drawing 145] General Procedure for H3-Receptor Binding Assay
The source of the H3 receptors in this experiment was guinea pig brain. The animals weighed 400-600 g. The brain tissue was homogenized with a solution of 50 mM Tris, pH 7.5. The final concentration of tissue in the homogenization buffer was 10% w/v. The homogenates were centrifuged at 1,000×g for 10 min. in order to remove clumps of tissue and debris. The resulting supernatants were then centrifuged at 50,000×g for 20 min. in order to sediment the membranes, which were next washed three times in homogenization buffer (50,000×g for 20 min. each). The membranes were frozen and stored at −70° C. until needed.
All compounds to be tested were dissolved in DMSO and then diluted into the binding buffer (50 mM Tris, pH 7.5) such that the final concentration was 2 μg/ml with 0.1% DMSO. Membranes were then added (400 μg of protein) to the reaction tubes. The reaction was started by the addition of 3 nM [^3H]R-α-methyl histamine (8.8 Ci/mmol) or 3 nM [^3H]N^α-methyl histamine (80 Ci/mmol) and continued under incubation at 30° C. for 30 min. Bound ligand was separated from unbound ligand by filtration, and the amount of radioactive ligand bound to the membranes was quantitated by liquid scintillation spectrometry. […]

T1 sequence (Q9JI35 whole entry): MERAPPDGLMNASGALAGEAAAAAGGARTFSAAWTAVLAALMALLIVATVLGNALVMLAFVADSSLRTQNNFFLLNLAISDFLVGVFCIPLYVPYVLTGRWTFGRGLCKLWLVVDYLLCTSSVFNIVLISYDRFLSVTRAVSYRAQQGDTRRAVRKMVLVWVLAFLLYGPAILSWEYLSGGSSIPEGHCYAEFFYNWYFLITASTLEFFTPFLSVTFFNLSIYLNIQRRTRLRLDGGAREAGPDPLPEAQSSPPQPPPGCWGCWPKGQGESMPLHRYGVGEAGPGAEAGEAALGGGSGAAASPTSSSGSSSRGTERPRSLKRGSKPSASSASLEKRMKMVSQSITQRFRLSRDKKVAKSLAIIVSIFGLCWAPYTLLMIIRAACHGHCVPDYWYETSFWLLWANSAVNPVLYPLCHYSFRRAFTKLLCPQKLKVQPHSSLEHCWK

Ki: 1.5 nM
SMILES: Nc1cc(CN2CCC(C(=O)N3CCC(c4c(-c5ccccn5)n(Cc5ccccn5)c5ccccc45)CC3)CC2)ccn1 [Example 5]
